Earlier results in publication PMC13517605, “In Vitro Three-Dimensional Human Liver Model for Drug-Induced Liver and Bile Duct Injury Prediction” (Toxics, 2026).

Details: maximum plasma concentration in humans

Cmax: 52.3 µM
SMILES: [H]/N=C(/N)N[C@H]1[C@H](O)[C@@H](O)[C@H](O[C@@H]2O[C@@H](C)[C@](O)(C=O)[C@H]2O[C@@H]2O[C@@H](CO)[C@H](O)[C@@H](O)[C@@H]2NC)[C@@H](N/C(N)=N\[H])[C@@H]1O [Streptomycin, streptomycin]
